Results as given in ChEMBL document CHEMBL1130721, “Design and synthesis of novel conformationally restricted HIV protease inhibitors” (Bioorg Med Chem Lett, 1998).
pKi: −log10 of the molar value.

Target: Human immunodeficiency virus type 1 protease (Human immunodeficiency virus 1, UniProt Q72874)
Test: Compound was assayed for inhibition against HIV protease activity

## COc1ccc(S(=O)(=O)N(CC2CCCC2)C[C@@H](O)CN2C(=O)N(Cc3ccccc3)C[C@@H]2Cc2ccccc2)cc1
  pKi: 7.82

## COc1ccc(S(=O)(=O)N(CC2CCCC2)C[C@@H](O)CN2C(=O)COC[C@@H]2Cc2ccccc2)cc1
  pKi: 6.00

## COc1ccc(S(=O)(=O)N(CC2CCCC2)C[C@@H](O)CN2C(=O)[C@@H](Cc3ccccc3)C[C@@H]2Cc2ccccc2)cc1
  pKi: 9.30

## COc1ccc(S(=O)(=O)N(CC2CCCC2)C[C@@H](O)CN2C(=O)CNC[C@@H]2Cc2ccccc2)cc1
  pKi: 5.52

## COc1ccc(S(=O)(=O)N(CC2CCCC2)C[C@@H](O)CN2C(=O)OC[C@@H]2Cc2ccccc2)cc1
  pKi: 5.82

## COc1ccc(S(=O)(=O)N(CC2CCCC2)C[C@@H](O)CN2C(=O)C3(CCCCC3)NC[C@@H]2Cc2ccccc2)cc1
  pKi: 7.77
